According to ChEMBL document CHEMBL4477228, “Discovery of 2-((3-cyanopyridin-2-yl)thio)acetamides as human lactate dehydrogenase A inhibitors to reduce the growth of MG-63 osteosarcoma cells: Virtual screening and biological validation” (Bioorg Med Chem Lett, 2016):
One block for each molecule: values may come before it. Active and inactive are the calls of the source. The calls are words filed in the database; no cut-off is given here.

Key:
[1] = target: T1, L-lactate dehydrogenase A chain (Homo sapiens, UniProt P00338); assay: Inhibition of human LDHA assessed as conversion of pyruvate to lactate measuring disappearance of NADH after 10 mins by fluorescence assay
MG-63 [2] = assay: Cytotoxicity of human MG63 cells assessed as cell growth inhibition after 72 hrs by MTT assay; type: functional, cell-based
[3] = target: T1, L-lactate dehydrogenase A chain; assay: Inhibition of human LDHA in MG63 cells assessed as reduction in lactate formation at 20 uM after 12 hrs; type: cell-based
MG-63 [4] = assay: Induction of apoptosis in human MG63 cells assessed as viable cells at 2 uM after 12 hrs by Annexin V-FITC/propidium iodide staining based flow cytometry (reference value: 95.8 %); type: functional; settings: MG-63, 12 h, read-out: Activity
MG-63 [5] = assay: Induction of apoptosis in human MG63 cells assessed as early apoptotic cells at 2 uM after 12 hrs by Annexin V-FITC/propidium iodide staining based flow cytometry (reference value: 0.4 %); type: functional
MG-63 [6] = assay: Induction of apoptosis in human MG63 cells assessed as late apoptotic cells at 2 uM after 12 hrs by Annexin V-FITC/propidium iodide staining based flow cytometry (reference value: 3.2 %); type: functional
MG-63 [7] = assay: Induction of apoptosis in human MG63 cells assessed as necrotic cells at 2 uM after 12 hrs by Annexin V-FITC/propidium iodide staining based flow cytometry (reference value: 0.5 %); type: functional
MG-63 [8] = assay: Induction of apoptosis in human MG63 cells assessed as viable cells at 5 uM after 12 hrs by Annexin V-FITC/propidium iodide staining based flow cytometry (reference value: 95.8 %); type: functional; settings: MG-63, 12 h, read-out: Activity
MG-63 [9] = assay: Induction of apoptosis in human MG63 cells assessed as early apoptotic cells at 5 uM after 12 hrs by Annexin V-FITC/propidium iodide staining based flow cytometry (reference value: 0.4 %); type: functional
MG-63 [10] = assay: Induction of apoptosis in human MG63 cells assessed as late apoptotic cells at 5 uM after 12 hrs by Annexin V-FITC/propidium iodide staining based flow cytometry (reference value: 3.2 %); type: functional
MG-63 [11] = assay: Induction of apoptosis in human MG63 cells assessed as necrotic cells at 5 uM after 12 hrs by Annexin V-FITC/propidium iodide staining based flow cytometry (reference value: 0.5 %); type: functional
MG-63 [12] = assay: Induction of apoptosis in human MG63 cells assessed as viable cells at 10 uM after 12 hrs by Annexin V-FITC/propidium iodide staining based flow cytometry (reference value: 95.8 %); type: functional; settings: MG-63, 12 h, read-out: Activity
MG-63 [13] = assay: Induction of apoptosis in human MG63 cells assessed as early apoptotic cells at 10 uM after 12 hrs by Annexin V-FITC/propidium iodide staining based flow cytometry (reference value: 0.4 %); type: functional
MG-63 [14] = assay: Induction of apoptosis in human MG63 cells assessed as late apoptotic cells at 10 uM after 12 hrs by Annexin V-FITC/propidium iodide staining based flow cytometry (reference value: 3.2 %); type: functional
MG-63 [15] = assay: Induction of apoptosis in human MG63 cells assessed as necrotic cells at 10 uM after 12 hrs by Annexin V-FITC/propidium iodide staining based flow cytometry (reference value: 0.5 %); type: functional
MG-63 [16] = assay: Induction of apoptosis in human MG63 cells assessed as viable cells at 10 uM after 6 hrs by Annexin V-FITC/propidium iodide staining based flow cytometry (reference value: 95.8 %); type: functional; settings: MG-63, 6 h, read-out: Activity
MG-63 [17] = assay: Induction of apoptosis in human MG63 cells assessed as early apoptotic cells at 10 uM after 6 hrs by Annexin V-FITC/propidium iodide staining based flow cytometry (reference value: 0.4 %); type: functional
MG-63 [18] = assay: Induction of apoptosis in human MG63 cells assessed as late apoptotic cells at 10 uM after 6 hrs by Annexin V-FITC/propidium iodide staining based flow cytometry (reference value: 3.2 %); type: functional
MG-63 [19] = assay: Induction of apoptosis in human MG63 cells assessed as necrotic cells at 10 uM after 6 hrs by Annexin V-FITC/propidium iodide staining based flow cytometry (reference value: 0.5 %); type: functional
MG-63 [20] = assay: Induction of apoptosis in human MG63 cells assessed as viable cells at 10 uM after 24 hrs by Annexin V-FITC/propidium iodide staining based flow cytometry (reference value: 95.8 %); type: functional; settings: MG-63, 24 h, read-out: Activity
MG-63 [21] = assay: Induction of apoptosis in human MG63 cells assessed as early apoptotic cells at 10 uM after 24 hrs by Annexin V-FITC/propidium iodide staining based flow cytometry (reference value: 0.4 %); type: functional
MG-63 [22] = assay: Induction of apoptosis in human MG63 cells assessed as late apoptotic cells at 10 uM after 24 hrs by Annexin V-FITC/propidium iodide staining based flow cytometry (reference value: 3.2 %); type: functional
MG-63 [23] = assay: Induction of apoptosis in human MG63 cells assessed as necrotic cells at 10 uM after 24 hrs by Annexin V-FITC/propidium iodide staining based flow cytometry (reference value: 0.5 %); type: functional
MG-63 [24] = assay: Induction of apoptosis in human MG63 cells after 12 hrs by Annexin V-FITC/propidium iodide staining based flow cytometry; type: functional, cell-based
MG-63 [25] = assay: Induction of apoptosis in human MG63 cells at 10 uM by Annexin V-FITC/propidium iodide staining based flow cytometry; type: functional, cell-based; settings: TDE = time-dependent effect
[26] = target: T1, L-lactate dehydrogenase A chain; assay: Inhibition of human LDHA in MG63 cells assessed as reduction in lactate formation after 12 hrs; type: cell-based
[27] = Homo sapiens, MG-63, 72 h, read-out: EC50

SMILES: COc1ncc(-c2ccc3c(Nc4cccc(C(=O)O)c4)c(S(N)(=O)=O)cnc3c2)c(OC)n1
IC50 [1]: 7.4 µM
EC50 (MG-63 [2]; [27]): 28.4 µM
inhibition [3]: Active

SMILES: COc1ccc(-c2cc(-c3ccc(OC)cc3)c(C#N)c(SCC(=O)Nc3c(C)cccc3C)n2)cc1
IC50 [1]: 22.5 µM
EC50 (MG-63 [2]; [27]): 35.4 µM

SMILES: COc1ccc(-c2cc(-c3ccc(OC)cc3)c(C#N)c(SCC(=O)Nc3ccc(C)c(C)c3)n2)cc1
IC50 [1]: > 100 µM
EC50 (MG-63 [2]; mg-63): Not Active

These reach a lower IC50 [1]. Values come first.

IC50 [1]: 6.59 µM
SMILES: COc1ccc(-c2cc(-c3ccccc3)c(C#N)c(SCC(=O)Nc3cc(C)cc(C)c3)n2)cc1
EC50 (MG-63 [2]; [27]): 5.78 µM

IC50 [1]: 1.24 µM
inhibition [26]: Dose-dependent effect
SMILES: CCc1ccccc1NC(=O)CSc1nc(-c2ccc(OC)cc2)cc(-c2ccc(OC)cc2)c1C#N
EC50 (MG-63 [2]; [27]): 0.98 µM
viability at 2 µM (MG-63 [4]): 91%
Activity (MG-63 [5]): 2%
Activity (MG-63 [6]): 6.5%
Activity (MG-63 [7]): 0.4%
viability at 5 µM (MG-63 [8]): 88.2%
Activity (MG-63 [9]): 0.7%
Activity (MG-63 [10]): 10.3%
Activity (MG-63 [11]): 0.8%
viability at 10 µM (MG-63 [12]): 82.7%
Activity (MG-63 [13]): 2.8%
Activity (MG-63 [14]): 14.1%
Activity (MG-63 [15]): 0.4%
viability at 10 µM (MG-63 [16]): 86.1%
Activity (MG-63 [17]): 5%
Activity (MG-63 [18]): 8.1%
Activity (MG-63 [19]): 0.8%
viability at 10 µM (MG-63 [20]): 73.1%
Activity (MG-63 [21]): 3.1%
Activity (MG-63 [22]): 23.5%
Activity (MG-63 [23]): 0.3%
Activity (MG-63 [24]): Dose-dependent effect
Activity (MG-63 [25]): Tde

IC50 [1]: 3.4 µM
SMILES: Cc1ccc(-c2cc(-c3ccc(F)cc3)nc(SCC(=O)Nc3cccc(C)c3)c2C#N)cc1
EC50 (MG-63 [2]; [27]): 6.72 µM
